In patent US5989326A, “Dyes for ink jet printing” (Ilford Imaging Switzerland GmbH, priority 1997, dated 1999):
Several values for one entry are separate records, joined by “and”; a condition that tells them apart may be missing. Equal entries are not always repeated.

Legend:
[1] = Absorption maximum in water; type: physicochemical
Source text: The absorption maxima and the results of the tests (B) to (D) are reported in Table 6 for the dyes of the invention and the comparative values for previously known disazo dyes in Table 7.

[2] = Dye solubility in deionised water; type: physicochemical; conditions: for Solubility: deionised water, stirred 1 hour at 50° C., cooled to 20° C.; for Solubility, comparison in words: versus previously known black disazo dyes 12 and 14
Procedure: The dye was dispersed or solubilised in deionised water and the dispersion or solution was stirred for one hour at 50° C. Then the mixture was cooled down to 20° C., centrifuged and filtered. The solubility of the dye was calculated a) from UV/VIS spectral data of the mother liquor (solution) or b) based on the dried filter residue.

HD max in water [1] | Solubility [2] [g per 100 ml] | Solubility, comparison in words [2] | Compound
557 nm |  |  | COc1cc(N=Nc2cccc(C(=O)O)c2)c(C)cc1N=Nc1c(S(=O)(=O)O)cc2ccc(N)cc2c1O [Compound 15, reference compound]
595 nm and 491 nm |  |  | COc1cc(N=Nc2c(S(=O)(=O)O)cc3ccc(NCCS(=O)(=O)O)cc3c2O)c(OC)cc1N=Nc1cc(S(=O)(=O)O)c2cccc(S(=O)(=O)O)c2c1 [Compound 7]
557 nm |  |  | COc1cc(N=Nc2cccc(C(=O)O)c2)c(NC(C)=O)cc1N=Nc1c(S(=O)(=O)O)cc2ccc(N)cc2c1O [Compound 11, reference compound]
575 nm | > 20 | much higher solubility | COc1cc(N=Nc2ccc3c(S(=O)(=O)O)cc(S(=O)(=O)O)cc3c2)c(C)cc1N=Nc1c(S(=O)(=O)O)cc2ccc(NCCS(=O)(=O)O)cc2c1O [Compound 6]
583 nm |  |  | Cc1cc(N=Nc2c(S(=O)(=O)O)cc3ccc(NCCS(=O)(=O)O)cc3c2O)c(OCCO)cc1N=Nc1cc(S(=O)(=O)O)c2cccc(S(=O)(=O)O)c2c1 [Compound 5]
569 nm |  |  | COc1cc(N=Nc2cccc(S(=O)(=O)O)c2)c(C)cc1N=Nc1c(S(=O)(=O)O)cc2ccc(NCCS(=O)(=O)O)cc2c1O [Compound 1]

Second part, the compound before the results:

Compound | HD max in water [1] | Solubility [2] [g per 100 ml] | Solubility, comparison in words [2]
COc1cc(N=Nc2cccc(C(=O)O)c2)c(NC(C)=O)cc1N=Nc1c(S(=O)(=O)O)cc2ccc(NCCC(=O)O)cc2c1O [Compound 13, reference compound] | 488 nm |  | 
Cc1cc(N=Nc2c(S(=O)(=O)O)cc3ccc(Nc4cccc(S(=O)(=O)O)c4)cc3c2O)ccc1N=Nc1cc(S(=O)(=O)O)c2cccc(S(=O)(=O)O)c2c1 [Compound 10, reference compound] | 559 nm |  | 
COc1cc(N=Nc2cc(S(=O)(=O)O)c3cccc(S(=O)(=O)O)c3c2)c(C)cc1N=Nc1c(S(=O)(=O)O)cc2ccc(NCCS(=O)(=O)O)cc2c1O [Compound 4] | 584 nm | > 20 | much higher solubility
Cc1cc(N=Nc2c(S(=O)(=O)O)cc3ccc(NCCS(=O)(=O)O)cc3c2O)c(OCCO)cc1N=Nc1cccc(S(=O)(=O)O)c1 [Compound 2] |  | > 20 | much higher solubility
COc1cc(N=Nc2c(S(=O)(=O)O)cc3ccc(Nc4ccc(C(=O)O)cc4)cc3c2O)c(OC)cc1N=Nc1ccc(C(=O)O)cc1 [Compound 14, reference compound] | 584 nm | 17 | 
COc1cc(N=Nc2cccc(C(=O)O)c2)c(NC(C)=O)cc1N=Nc1c(S(=O)(=O)O)cc2ccc(Nc3ccc(C(=O)O)cc3)cc2c1O [Compound 12, reference compound] | 498 nm | 3.6 | 
